Experimental data taken from patent US12473250B2, “Molecular design of new antibiotics and antibiotic adjuvants against MCR strains” (priority 2019, dated 2025).
≈ marks a conversion by molar mass, not a printed value.

Experiments:
Assay type in all cases: cell-based
[1] = test system: colistin resistant MCR (−) E. Coli strains; experiment: MIC, broth microdilution, compound alone
Method: (§1) MIC experiments of the antimicrobial agents were determined by a modified broth microdilution method in accordance with the Clinical and Laboratory Standards Institute (CLSI) guidelines using 96 well culture plates. In brief, serial dilutions of all plates were prepared at different concentrations (μg). The inoculum suspension was prepared by adding isolated colonies from a 18-20 hours on TSA plate into phosphate buffer (0.31 mM, pH 7.2) or in water for injection (BBraun) and adjusting the suspension to a turbidity equivalent to 0.5 McFarland Standard. Each well contained a final bacterial concentration of approximately 5×10^5 colony forming units (CFU)/mL. The plate was covered and incubated at 35° C. for 24 hours. […] For the microdilution plates, turbidity in wells can be measured at OD600 using TECAN infinite M200Pro. MIC was determined as […] concentration that gives a 99 percent inhibition.

[2] = test system: colistin resistant MCR (−) E. Cloacae strain 7023456439; experiment: MIC, broth microdilution, compound alone; details: strain 7023456439 E. Cloacae
Method: as §1

[3] = test system: colistin resistant MCR (+) E. Coli strains; experiment: MIC, broth microdilution, compound alone; details: compound alone
Method: as §1

[4] = test system: colistin resistant MCR (−) E. Coli strains; experiment: Synergy study: colistin MIC in the presence of compound
Method: (§2) The MICs of the individual drugs and LC compound in combinations were determined using the broth microdilution technique as recommended by the CLSI whereby the two anti-microbial agents were added in an equal amount. (e.g.: 50 μL of Colistin: 50 μL of LC compounds). Diluted media containing compounds and antibiotics will be serially diluted 2-fold, and LC compounds and antibiotics alone or in combination will be assayed at fixed synergy concentration. In all cases, the lowest concentration at which no visible growth occurred was be recorded to be the MIC value of individual and combined antibacterial agents. The results were obtained after 24 hours of incubation.

[5] = test system: colistin resistant MCR (−) E. Cloacae strain 7023456439; experiment: as above; details: strain 7023456439 E. Cloacae
Method: as §2

[6] = strain 6083672926, MCR(−), compound at 5 μg (Table 2a: 5 ug/ml)
[7] = strain 7023446108, MCR(−), compound at 5 μg (Table 2a: 5 ug/ml)
[8] = strain 7033607097, MCR(−), compound at 5 μg (Table 2a: 5 ug/ml)
[9] = compound at 5 μg (Table 2a: 5 ug/ml)
[10] = strain 6083672926, MCR(−), compound at 10 μg (Table 2a: 10 ug/ml)
[11] = strain 7023446108, MCR(−), compound at 10 μg (Table 2a: 10 ug/ml)
[12] = strain 7033607097, MCR(−), compound at 10 μg (Table 2a: 10 ug/ml)
[13] = compound at 10 μg (Table 2a: 10 ug/ml)

| SMILES | MIC ([1]; strain 6083672926, MCR (−)) | MIC ([1]; strain 7023446108, MCR (−)) | MIC ([1]; strain 7033607097, MCR (−)) | MIC [2] | MIC ([3]; strain 6075066346, MCR (+)) | MIC ([3]; strain 6083655967, MCR (+)) | MIC ([3]; strain 6103645107, MCR (+)) | MIC ([3]; strain 6123520276, MCR (+)) | MIC ([3]; strain 7013177695, MCR (+)) | MIC ([3]; strain 7023436560, MCR (+)) | MIC ([3]; strain 7023444207, MCR (+)) | Colistin MIC in the presence of the compound [4, 6] | Colistin MIC in the presence of the compound [4, 7] | Colistin MIC in the presence of the compound [4, 8] | Colistin MIC in the presence of the compound [5, 9] | Colistin MIC in the presence of the compound [4, 10] | Colistin MIC in the presence of the compound [4, 11] | Colistin MIC in the presence of the compound [4, 12] | Colistin MIC in the presence of the compound [5, 13] |
| --- | --- | --- | --- | --- | --- | --- | --- | --- | --- | --- | --- | --- | --- | --- | --- | --- | --- | --- | --- |
| CC(C)=CCc1c(OCCCCN(CCCN(C)C)CCCN(C)C)ccc(C(=O)/C=C/c2ccc(OCCCCN(CCCN(C)C)CCCN(C)C)cc2)c1O [LC097] | 25 µg/mL (≈ 31 µM) | 12.5 µg/mL (≈ 15.5 µM) | 12.5 µg/mL (≈ 15.5 µM) | >25 µg/mL | 25 µg/mL (≈ 31 µM) | 25 µg/mL (≈ 31 µM) | 12.5 µg/mL (≈ 15.5 µM) | 25 µg/mL (≈ 31 µM) | 12.5 µg/mL (≈ 15.5 µM) | 12.5 µg/mL (≈ 15.5 µM) | 25 µg/mL (≈ 31 µM) | 0.195 µg/mL | 0.195 µg/mL | 0.195 µg/mL | >12.5 µg/mL | – | – | – | – |
| CC(C)=CCc1c(OCCCCN(C)CCCN(C)C)ccc(C(=O)/C=C/c2ccc(OCCCCN(C)CCCN(C)C)cc2)c1O [LC098] | 12.5 µg/mL (≈ 18.8 µM) | 6.25 µg/mL (≈ 9.4 µM) | 6.25 µg/mL (≈ 9.4 µM) | >25 µg/mL | 6.25 µg/mL (≈ 9.4 µM) | 6.25 µg/mL (≈ 9.4 µM) | 6.25 µg/mL (≈ 9.4 µM) | 6.25 µg/mL (≈ 9.4 µM) | 6.25 µg/mL (≈ 9.4 µM) | 6.25 µg/mL (≈ 9.4 µM) | 6.25 µg/mL (≈ 9.4 µM) | 0.195 µg/mL | 0.195 µg/mL | 0.195 µg/mL | 25 µg/mL | – | – | – | – |
| COC(=O)C(CCCNC(=N)N)NC(=O)COc1ccc(C2COc3c(ccc4c3C=CC(C)(C)O4)C2)c(OCC(=O)NC(CCCNC(=N)N)C(=O)OC)c1 (stereo not drawn) [LC106] | >25 µg/mL | >25 µg/mL | >25 µg/mL | >25 µg/mL | >25 µg/mL | >25 µg/mL | >25 µg/mL | >25 µg/mL | >25 µg/mL | >25 µg/mL | >25 µg/mL | – | – | – | – | 12.5 µg/mL | 6.25 µg/mL | 6.25 µg/mL | >25 µg/mL |
| CC1(C)C=Cc2c(ccc3c2OCC(c2ccc(OCC(=O)NC(CCCNC(=N)N)C(N)=O)cc2OCC(=O)NC(CCCNC(=N)N)C(N)=O)C3)O1 (stereo not drawn) [LC127] | >50 µg/mL | >50 µg/mL | >50 µg/mL | >50 µg/mL | >50 µg/mL | >50 µg/mL | >50 µg/mL | >50 µg/mL | >50 µg/mL | >50 µg/mL | >50 µg/mL | – | – | – | – | 12.5 µg/mL | 6.25 µg/mL | 6.25 µg/mL | >12.5 µg/mL |
| CC(C)=CCc1c(OCC(=O)NC(CCCNC(=N)N)C(N)=O)ccc(C(=O)/C=C/c2ccc(OCC(=O)NC(CCCNC(=N)N)C(N)=O)cc2)c1O (stereo not drawn) [LC131] | >50 µg/mL | >50 µg/mL | >50 µg/mL | >50 µg/mL | >50 µg/mL | >50 µg/mL | >50 µg/mL | >50 µg/mL | >50 µg/mL | >50 µg/mL | >50 µg/mL | – | – | – | – | 12.5 µg/mL | 6.25 µg/mL | 6.25 µg/mL | >12.5 µg/mL |
| CC(C)=CCc1c(OCCC[N+](C)(C)C)ccc(C(=O)/C=C/c2ccc(OCCC[N+](C)(C)C)cc2)c1O [LC312] | 12.5 µg/mL | 6.25 µg/mL | 12.5 µg/mL | >50 µg/mL | 12.5 µg/mL | 12.5 µg/mL | 12.5 µg/mL | 12.5 µg/mL | 12.5 µg/mL | 6.25 µg/mL | 12.5 µg/mL | – | – | – | – | <0.0975 µg/mL | <0.0975 µg/mL | <0.0975 µg/mL | >12.5 µg/mL |
| CC[N+](CC)(CC)CCCCOc1ccc(/C=C/C(=O)c2ccc(OCCCC[N+](CC)(CC)CC)c(CC=C(C)C)c2O)cc1 [LC315] | 25 µg/mL | 12.5 µg/mL | 12.5 µg/mL | >50 µg/mL | 6.25 µg/mL | 6.25 µg/mL | 6.25 µg/mL | 12.5 µg/mL | 12.5 µg/mL | 6.25 µg/mL | 12.5 µg/mL | <0.0975 µg/mL | <0.0975 µg/mL | <0.0975 µg/mL | >12.5 µg/mL | – | – | – | – |
| CC[N+](CC)(CC)CCCCOc1ccc(C2COc3c(ccc4c3C=CC(C)(C)O4)C2)c(OCCCC[N+](CC)(CC)CC)c1 (stereo not drawn) [LC317] | >50 µg/mL | 50 µg/mL | >50 µg/mL | >50 µg/mL | 50 µg/mL | 50 µg/mL | 50 µg/mL | >50 µg/mL | 50 µg/mL | 50 µg/mL | 50 µg/mL | – | – | – | – | 1.56 µg/mL | 1.56 µg/mL | 1.56 µg/mL | >12.5 µg/mL |
